# Assay: solvent given as SMILES
smiles,measurement,setting,value
CN(C)c1ccc(/C=C2\CC/C(=C\c3ccc(C#N)cc3)C2=O)cc1,emission maximum,in C1CCOC1,651 nm
same,emission maximum,in CC#N,721 nm
same,emission maximum,in CC(C)=O,718 nm
same,emission maximum,in CC(C)O,647 nm
same,emission maximum,in CCCCO,648 nm
same,emission maximum,in CCCCOC(C)=O,631 nm
same,emission maximum,in CCCO,644 nm
same,emission maximum,in CCO,659 nm
same,emission maximum,in CCOC(=O)c1ccccc1,641 nm
same,emission maximum,in CCOC(C)=O,643 nm
same,emission maximum,in CCOCC,580 nm
same,emission maximum,in CN(C)C=O,740 nm
same,emission maximum,in CO,693 nm
same,emission maximum,in CS(C)=O,731 nm
same,emission maximum,in Cc1ccccc1,558 nm
same,emission maximum,in ClC(Cl)(Cl)Cl,513 nm
same,emission maximum,in ClC(Cl)Cl,603 nm
same,emission maximum,in ClCCl,643 nm
same,emission maximum,in Clc1ccccc1Cl,625 nm
same,emission maximum,in O=C1CCCC1,678 nm
same,emission maximum,in S=C=S,535 nm
same,emission maximum,in c1ccccc1,569 nm
same,emission maximum,in c1ccncc1,673 nm
CN(C)c1ccc(/C=C/c2nc3c4ccccc4c4ccccc4c3[nH]2)cc1,emission maximum,in C1CCOC1,463 nm
same,emission maximum,in C1COCCO1,436 nm
same,emission maximum,in CC1CCCCC1,430 nm
same,emission maximum,in CC#N,476 nm
same,emission maximum,in CCOC(C)=O,460 nm
same,emission maximum,in CCOCC,448 nm
same,emission maximum,in CN(C)C=O,478 nm
same,emission maximum,in COC(C)=O,471 nm
same,emission maximum,in CS(C)=O,480 nm
same,emission maximum,in Cc1ccccc1,436 nm
same,emission maximum,in ClC(Cl)Cl,467 nm
CC(C)(C)c1ccc2oc3nc4oc5ccc(N6c7ccccc7Oc7ccccc76)cc5c4cc3c2c1,emission maximum,in ClC(Cl)Cl,491 nm
COc1ccc2cc(-c3cccc(-c4cc5ccc(OC)cc5oc4=O)c3)c(=O)oc2c1,emission maximum,in ClC(Cl)Cl,426 nm
COc1ccc(/C=C2\OC(=O)c3cc(N)ccc32)cc1,emission maximum,in CC#N,450.25 nm
same,emission maximum,in CC(C)=O,446.03 nm
same,emission maximum,in CC(C)CO,474.83 nm
same,emission maximum,in CC(C)O,481.23 nm
same,emission maximum,in CCCO,482.63 nm
same,emission maximum,in CCO,485.44 nm
same,emission maximum,in CCOC(C)=O,445.04 nm
same,emission maximum,in CCOCC,443.26 nm
same,emission maximum,in CO,486.14 nm
CN(C)c1ccc(C2=Nc3sc4ccccc4[n+]3[B-](F)(F)O2)cc1,emission maximum,in C1CCOC1,469 nm
same,emission maximum,in CC#N,486 nm
same,emission maximum,in CC(C)=O,482 nm
same,emission maximum,in Cc1ccccc1,450 nm
same,emission maximum,in ClCCl,467 nm
Cc1ccc(C)n1-c1cccc(C#N)c1,emission maximum,in C1CCOC1,481 nm
same,emission maximum,in CCCCCC,403 nm
same,emission maximum,in CCCCCl,477 nm
same,emission maximum,in CCOCC,444 nm
same,emission maximum,in ClCCl,504 nm
CCOC(=O)c1cc(C(=O)OCC)c2ccc(C)cc2n1,emission maximum,in CCO,422 nm
Cc1ccc(-c2ccc(-c3ccc(-c4ccc(-c5ccc(C)cc5)cc4)c(/C(=C(/c4ccccc4)c4cc(-c5ccc(-c6ccc(C)cc6)cc5)ccc4-c4ccc(-c5ccc(C)cc5)cc4)c4ccccc4)c3)cc2)cc1,emission maximum,in C1CCOC1,498 nm
Cc1c(C)n2c(COC(=O)CNC(=O)OC(C)(C)C)c(C)c(=O)n2c1=O,emission maximum,in CCO,459 nm
COC(=O)c1cc(=O)n(C)c2cc(-c3ccc4c(c3)OCO4)sc12,emission maximum,in CC#N,482 nm
same,emission maximum,in ClCCl,474 nm
O=C(O)COc1cccc(-c2c3nc(cc4ccc([nH]4)c(-c4cccc(OCC(=O)O)c4)c4nc(cc5ccc2[nH]5)C=C4)C=C3)c1,emission maximum,in CS(C)=O,633 nm
Cc1nn(-c2ccccc2)c2c1c(=O)oc1ccc(-n3c4ccccc4c4ccccc43)cc12,emission maximum,in Cc1ccccc1,412 nm
C(=C/c1ccc(N(c2ccccc2)c2ccccc2)cc1)/c1ccc(N(c2ccccc2)c2ccccc2)cc1,emission maximum,in ClCCl,441 nm
c1ccc2cc3c(cc2c1)-c1cccc2c1c-3cc1ccccc12,emission maximum,in CCCCCCC,401 nm
CC1(C)c2ccccc2N(c2ccc(-c3nnc(-c4ccccc4)o3)cc2)c2ccccc21,emission maximum,in Cc1ccccc1,450 nm
same,emission maximum,in c1ccc(-n2c(-c3c(-n4c5ccccc5c5ccccc54)cccc3-n3c4ccccc4c4ccccc43)nc3ccccc32)cc1,455 nm
COc1cc2cc(OC)c(-c3ccc([N+](=O)[O-])cc3)cc2cc1-c1ccc([N+](=O)[O-])cc1,emission maximum,in ClC(Cl)Cl,544 nm
same,emission maximum,in ClCCl,578 nm
COc1ccc(-c2cc(-c3ccc(C(F)(F)F)cc3)nn2C)cc1,emission maximum,in ClCCl,367 nm

# Reference: the Deep4Chem optical property database
